Laboratory results: patent US10220064B2, “Carbohydrate composition extracted from Panax ginseng and its use in the treatment of ischemic conditions” (Macau University of Science and Technology, priority 2016, dated 2019)

Key:
H/R-induced H9c2 cells = assay: Impact of survival pathway inhibitors on AP1-induced cardio-protection (MVS assay); conditions: with 200 μg/mL AP1; mifepristone 100 μM, tamoxifen 100 μM, L-NAME 10 μM, LY294002 40 μM, Akt inhibitor IV 10 μM, U0126 40 μM (FIG. 11)
Protocol: H9c2 cells were pre-cultured in the presence or absence of survival pathway inhibitors, including mifepristone (MP, 100 μM), tamoxifen (TX, 100 μM), L-NAME (LM, 10 μmol/L), LY294002 (LY, 40 μM), Akt inhibitor IV (IV, 10 μM), U0126 (40 μM) with or without 200 μg/mL AP1 for 1 h, and then exposed further to H/R injury. The normal group (NOR) was always maintained in normoxic condition. Cell death was assessed by MVS assay. All measurements were repeated in six wells, the results are the average of three independent experiments. All values are expressed as mean±SD. ^^^P<0.001 vs. NOR, ***P<0.001 vs. H/R, ^##P<0.01 vs. AP1 under H/R, ^###P<0.001 vs. AP1 under H/R.
To examine the effectiveness of RSE and AP1 on H9c2 cells under hypoxia/reoxygenation conditions, the cells were cultured under normoxic conditions (95% air/5% CO2) overnight; then the cells were washed twice with Krebs-Ringer Bicarbonate buffer (composition in mM: NaCl 115, KCl 4.7, CaCl2 2.5, KH2PO4 1.2, MgSO4 1.2, NaHCO3 24, HEPES 10; pH 7.4) balanced with N2 at 4° C. for overnight. Aliquots (100 μL) of KRB supplemented with 0.01% (w/v) BSA were added to the cells immediately prior to hypoxia. To create a hypoxia condition, a hypoxic chamber (Stem Cell Technologies, USA) was used to produce an in vitro hypoxia challenge (Chiu, P. Y. et al., Molecular and cellular biochemistry 350, 237-250, 2011). In essence, the cells were placed in the sealed chamber and the chamber was flushed with pure N2 for 5 min at a flow rate of 20 mL/min, then, all sealable connectors were closed. After that, the chamber was transferred to an incubator and the cells in the chamber were subjected to 3 h incubation at 37° C. to induced hypoxia. Reoxygenation was initiated by opening the chamber and then replacing the KRB with fresh DMEM medium, the cells were then cultured in an incubator under normoxic conditions (95% air/5% CO2) at 37° C. for another 4 h.
The cells were seeded at the density of 8×10^4 cells/well in a 96-well plate. […] The control normal group was always maintained in normal DMEM and put in the incubator under normoxic atmosphere (95% air/5% CO2). For pharmaceutical blockages, the cells were treated with mifepristone (an inhibitor of GR, 100 μM), tamoxifen (an inhibitor of ER, 100 μM), L-NAME (an inhibitor of NOS, 10 μM), LY294002 (an inhibitor of PI3K, 40 μM), Akt inhibitor IV (an inhibitor of Akt protein kinase, 10 μM), U0126 (an inhibitor of Erk1/2, 40 μM) right before the pretreatment of AP1 (200 μg/mL).
The cell viability was evaluated by MVS assay (Sathishkumar, K. et al., Free Radicals and Antioxidant Protocols, 51-61, 2010). Briefly, at the end of the cell culture, the cells were overlaid with 100 μL of 2×mitochondrial viability stain in each well containing 100 μL of medium and then incubated under normoxic condition (95% air/5% CO2) for 4 h in the dark. The fluorescent intensity was measured at excitation 550 nm and emission 590 nm by a TECAN Infinite M200 micro plate reader (Tecan, Durham, USA).

H9c2 cells [1] = assay: Cell morphology in the H/R model; format: cell-based, rat; conditions: 100 μM, pretreatment, H/R (FIG. 8E)
From the text: FIG. 8A through 8E show the cell morphology of H9c2 cell pretreated with the carbohydrate composition AP1 in the H/R model. […] All photos (magnification power 200×) were taken after reoxygenation.
The medium was changed every two days, and the confluent cells were passaged by trypsinization weekly. The cells passaged for three to four times were used for experiments described as below.

H9c2 cells [2] = assay: Flow cytometric analysis of cardiomyocyte apoptosis (Annexin V/PI); format: cell-based, rat; conditions: 100 μM, H/R, H/R group 46.0%
From the text: The normal group (Normal) was always maintained in normoxic condition. The cells were then stained with Annexin V-FITC and PI for apoptosis analysis by flow cytometry. Cells in the lower-left quadrant (Q3), unstained for both Annexin V-FITC and PI, are defined as viable cells. Cells in the lower-right quadrant (Q4), stained for Annexin V-FITC but negative for PI, are defined as early-medium apoptotic cells. Cells in the upper-right quadrant (Q2), positive for both Annexin V-FITC and PI, are defined as late apoptotic and necrotic populations. […] The percentage of apoptotic cells measured using the Annexin-V/PI kit for flow cytometry as manufacturer's instruction. […] Cells were re-suspended in 1× binding buffer containing propidium iodide (PI) and FITC-labelled Annexin V and incubated for 15 min at 37° C. in the dark, and analyzed with flow cytometry (FACS Vantage-BD Sciences, USA). The data was analyzed using Flow J software for determining the percent of apoptotic cells.

[3] = tested on: NO in culture medium of H9c2 cells; assay: Nitric oxide (NO) production, Griess reaction; format: cell-based, rat; conditions: L-NAME 10 μmol/L, H/R (FIG. 12)
Protocol: FIG. 12 illustrates the effect of carbohydrate composition AP1 on NO production. […] The normal group (Normal) was always maintained in normoxic condition. The changes of NO levels in culture medium of H9c2 cells following H/R injury were determined by Griess reagent.
The concentration of NO in the culture medium was determined by the Griess reaction with minor changes (Chen, X. P. et al., Journal of Neuroinflammation 9, 2012). At the end of the cell culture, 40 μL cell culture fluid, 10 μL NADPH, and 40 μL basal solution (0.03 M PBS; 1.25 mM glucose-6-phosphate; 400 U/L glucose-6-phosphate dehydrogenase; 200 U/L nitrate reeducates) was incubated in a 96 well microtiter plate for 45 min at room temperature. Next, 50 μL Griess reagent was added and the solution incubated for 20 min in the dark at room temperature. Finally, the absorbance of the samples was measured at 540 nm. Concentrations of NO in the sample were calibrated with a reference standard of sodium nitrite (NaNO2) supplied with the kit and the levels of NO were expressed as μM.

Structure (SMILES)	effect of inhibitor on protective effects of AP1 on H/R-induced cell death (H/R-induced H9c2 cells)	other results
CC[n+]1c(/C=C/N(C)c2ccccc2)n(-c2ccccc2)c2ccc(-c3nc4ccccc4s3)cc21.[I-] [Akt inhibitor IV]	abolished the protective effects of AP1	–
CC1=NS(=O)(=O)c2cc(Cl)ccc2N1 [DZ, diazoxide]	–	protection in H/R induced cell death (H9c2 cells [1]): significant protection; apoptosis (apoptotic cell accumulation) (H9c2 cells [2]): 22.2±3.8%
COC(=O)[C@@H](N)CCCNC(=N)N[N+](=O)[O-] [L-NAME]	abolished the protective effects of AP1	NO production [3]: significantly abolished
N#CC(=C(/N)Sc1ccccc1N)/C(C#N)=C(\N)Sc1ccccc1N [U0126]	abolished the protective effects of AP1	–
CC#C[C@]1(O)CC[C@H]2[C@@H]3CCC4=CC(=O)CCC4=C3[C@@H](c3ccc(N(C)C)cc3)C[C@@]21C [mifepristone]	abolished the protective effects of AP1	–
CC/C(=C(\c1ccccc1)c1ccc(OCCN(C)C)cc1)c1ccccc1 [tamoxifen]	abolished the protective effects of AP1	–
